Measurements: patent US6867027B1, “RNA polymerase” (The Institute of Physical and Chemical Research, priority 1997, dated 2005)

Columns and labels:
Type in all cases: biochemical
[1] = Inhibition of [α-32P]UTP incorporation by 3′-dATP in the transcription reaction (3′-dNTP incorporation rate); conditions: compared with wild type T7 RNA polymerase
Protocol: Ribonucleotide (NTP) and 3′-deoxynucleotide (3′-dNTP) incorporation rates of the mutant T7 RNA polymerase purified in Example 7 were measured as follows.
pBluescript(KS+) plasmid (Stratagene) linearized by reaction with a restriction endonuclease, PvuII, was used as a template for the transcription reaction, and 250 μM each of ATP, CTP, GTP, and UTP, 2 mM of spermidine-(HCl)3, 5 mM of DTT, 40 mM Tris/HCl pH 8.0, 0.1 μl of [α-^32P] UTP (3000 Ci/mmole), and 25 units of the mutant T7 RNA polymerase F644Y/L665P/F667Y were also used for the reaction. For two kinds of reaction mixture (with or without 3′-dATP, final concentration was 100 μM), the reaction was performed at 37° C. for 60 minutes. The whole reaction mixture was spotted on DE81 paper (Whatman), washed three times with phosphate buffer, and dried. The DE81 paper was placed into a scintillation vial, and radioactivity was measured using a scintillation counter (Beckman) for each reaction. Degree of inhibition of the [α-^32P] UTP incorporation was calculated by comparing the values obtained with and without 3′-dATP based on the measured radioactivity. The relative activity obtained from calculated inhibition degree and defined as a relative value to the inhibition degree of the wild type T7 RNA polymerase normalized to 1.000 was shown in Table 1.
The inhibition degree was calculated by using the wild type T7 RNA polymerase, T7 RNA polymerase F644Y, L665P/F667Y obtained in Example 3, mutant T7 RNA polymerase F644Y/L665P, F782Y, F733Y, F646Y or Y639F constructed and purified in the same manner as in Examples 2 and 3 for the reaction instead of the above F644Y/L665P/F667Y mutant, and relative activities are shown in Table 1.
For example, it is meant that the mutant T7 RNA polymerase F644Y/L665P/F667Y is 5.58 times more likely to incorporate 31-dATP in comparison with the wild type enzyme.

[2] = In vitro transcription with a single dye terminator, sequence ladder analysed on ABI 377 (Example 4); conditions: for incorporation efficiency for 3′-dCTP derivatives / peak intensities of the sequence ladders: compared with wild type; for peak intensities of the sequence ladders: FIG. 14 and FIG. 15
Protocol: 3′ -DNTP incorporation efficiency of the purified mutant T7 RNA polymerases F644Y and L665P/F667Y was compared with that of wild type T7 RNA polymerase as follows. In vitro transcription reaction was performed by, for example, a partially modified version of the method of Melton, D. A, [Nucleic Acids Res., 12:7035-7056 (1984)]. More specifically, the reaction was performed in a total volume of 10 μl containing a plasmid vector pBluescriptKS(+) having T7 promoter (Stratagene) linearized by the reaction with a restriction endonuclease PvuII or ScaI as a template, 150 μM of 5-carboxy-X-rhodamine-labeled 3′-deoxycytidine-5′-triphosphate which was a dye terminator prepared according to the method described in WO96/14434 as a derivative of 3′-dNTP, 500 μM of GTP and UTP, 250 μM of ATP and CTP, 8 mM Of MgCl2, 2 mM of spermidine-(HCl)3, 5 mM of DTT, 40 mM of Tris/HCl pH 8.0 (BRL, Gibco) and 25 units of wild type T7 RNA polymerase (BRL, Gibco or Nippon Gene) or the mutant T7 RNA polymerase F644Y or L665P/F667Y at 37° C. for 1 hour. Then, to remove the unreacted dye terminator remained in the reaction product, the transcription product was purified by gel filtration using Sephadex G-50 column (Pharmacia Biotec), and the purification product was evaporated to dryness using a centrifugal evaporator.
(§1) The dried reaction product was dissolved in 6 μl of formamide/EDTA/Blue dextran loading buffer according to the instruction manual Ver. 1.0 of ABI PRISM 377 DNA Sequencing System available from Perkin-Elmer Japan, and 2 μl of the solution was analyzed by ABI 377 DNA Sequencer and an analysis program using denatured gel for sequencing analysis which contained 6M urea/4% Long Ranger™ acrylamide solution (FMC).
The peak intensities of the sequence ladders obtained by using F644Y and L665P/F667Y are shown in FIG. 14 and FIG. 15 with the peak intensity obtained by using wild type T7 RNA polymerase.

[3] = tested on: plasmid vector pBluescriptKS(+) having T7 promoter; test: Sequencing reaction by the dye terminator method, linearized pBluescriptKS(+) template (Example 5); conditions: four dye terminators; for sequence reading: 37° C., 1 hour, ABI 377; for peak intensity in sequencing reaction: in comparison with wild type T7 RNA polymerase
Protocol: Sequencing reaction by the dye terminator method was performed utilizing the purified mutant T7 RNA polymerases F644Y and L665P/F667Y, and the wild type T7 RNA polymerase as follows for comparison.
For the in vitro transcription reaction, the method of Melton, D. A. (1984, Nucleic Acids Res., 12:7035-7056) exemplified in Example 4 was used. More specifically, the reaction was performed in a total reaction volume of 10 μl containing a plasmid vector pBluescriptKS (+) having T7 promoter linearized by the reaction with a restriction endonuclease PvuII or ScaI as a template, 5-carboxyrhodamine 6G-labeled 3′-deoxyadenosine-5′-triphosphate, 5-carboxyrhodamine 110-labeled 3′-deoxyguanosine-5′-triphosphate, 5-carboxy-X-rhodamine-labeled 3′-deoxycytidine-5′-triphosphate, and 5-carboxytetramethylrhodamine-labeled 3′-deoxyuridine-5′triphosphate, which were dye terminators prepared according to the method described in W096/14434 as derivatives of 3′-DNTP, 500 μM of GTP and UTP, 250 μM of ATP and CTP, 8 mM of MgCl2, 2 mM of spermidine-(HCl)3, 5 mM of DTT, 40 mM of Tris/HCl pH 8.0 (BRL, Gibco) and 25 units of wild type T7 RNA polymerase (BRL, Gibco or Nippon Gene) or the mutant T7 RNA polymerase F644Y at 37° C. for 1 hour. Then, to remove the unreacted dye terminators remained in the reaction product, the transcription product was purified by gel filtration using Sephadex G-50 column (Pharmacia Biotec), and the purification product was evaporated to dryness using a centrifugal evaporator.
as §1

Substance	ability for incorporating 3′-dATP, 3′-dGTP, 3′-dCTP, 3′-dUTP and derivatives thereof [1]	length of transcription product confirmed ([2]; 150 μM dye terminator, 37° C., 1 hour)	length of sequence ladder relative to that afforded by the wild type T7 RNA polymerase ([2]; 150 μM dye terminator, 37° C., 1 hour, gel image FIG. 13) [times]	incorporation efficiency for 3′-dCTP derivatives [2]	peak intensities of the sequence ladders [2]	sequence reading [3]	peak intensity in sequencing reaction [3]
F644Y/F667Y: mutant T7 RNA polymerase with F644Y and F667Y mutations	almost equal to that of the F644Y/L665P/F667Y mutant						
F644Y: T7 RNA polymerase in which F (phenylalanine) 644 was replaced with Y (tyrosine)	markedly improved	about 700 bases	3	improved	less fluctuation in comparison with the wild type, and the peak showed stronger signals	possible	higher peak intensity with less fluctuation
F667Y: T7 RNA polymerase in which F667 was replaced with Y	comparable to that of the L665P/F667Y mutant						
F782Y: T7 RNA polymerase in which F782 was replaced with Y	slightly improved						
L665P/F667Y: mutant T7 RNA polymerase with L665P and F667Y mutations	markedly improved			improved	less fluctuation in comparison with the wild type, and the peak showed stronger signals	possible	higher peak intensity with less fluctuation
